The source of these data is patent publication US20240374744A1, “PROTEIN AND PHARMACEUTICAL COMPOSITION COMPRISING SAME FOR PREVENTION OR TREATMENT OF CANCER” (CELLEMEDY CO., LTD, priority 2021, published 2024).

What all share (assay type): cell-based
One series relates to Normal lung cells IMR-90. Description: CCK (cell counting kit) cytotoxicity assay, IMR-90. The conditions noted are these: IMR-90 cell; anticancer drug alone vs protein nanoparticle conjugate, from IC50. The method, then:
(§1) Normal lung cells WI-38 and IMR-90, and normal colon cells CCD-18co were grown in 96-well microplate with 1×10^4 cells/well for 36 hours, and the cytotoxicity when only anticancer drug was added and the cytotoxicity when protein nanoparticle-anticancer drug conjugate was added were compared.

For the next series, the system named is Normal lung cells WI-38. Description: CCK (cell counting kit) cytotoxicity assay, WI-38. The conditions noted are these: WI-38 cell; anticancer drug alone vs protein nanoparticle conjugate, from IC50. The protocol: as §1
Series [1] has as its system normal colon cells CCD-18co. The series is described as follows: CCK (cell counting kit) cytotoxicity assay, CCD-18co. Conditions: CCD-18co cell; anticancer drug alone vs protein nanoparticle conjugate, from IC50. The protocol: as §1

SMILES strings stand for the structures.

As to `COc1cccc2c1C(=O)c1c(O)c3c(c(O)c1C2=O)C[C@@](O)(C(=O)CO)C[C@@H]3O[C@H]1C[C@H](N)[C@H](O)[C@H](C)O1` [DOX, doxorubicin], the “drug toxicity reduction (DTR)” value was 316 with Normal lung cells IMR-90, 263 with Normal lung cells WI-38 and 91 in series [1].
On to `Nc1ccn([C@@H]2O[C@H](CO)[C@@H](O)C2(F)F)c(=O)n1` [GEM, gemcitabine], for which the results for the “drug toxicity reduction (DTR)” value (in the series with Normal lung cells IMR-90; in the series on Normal lung cells WI-38; in series [1]) were 7244, 3162 and 8913, respectively.
